Assay results: BindingDB's records for doi:10.1016/s0960-894x(00)00163-3 (Glaxosmithkline, 2000)

Biological target: T1, Dimer of Gag-Pol polyprotein [501-599,Q508K,L534I,L564I,C568A,C596A] (Human immunodeficiency virus 1, UniProt P03367, C568A/C596A/L534I/L564I/Q508K)
T1 construct: 501-599
Experiment: Protease Inhibition Assay
Settings: pH 6.4; 25 °C
Experimental: The Ki values were determined using fluorogenic substrate, 2-(aminobenzoyl)-Thr-Ile-Nle-Phe(p-NO2)-Gln-ArgNH2. A standard curve relating changes in fluorescent intensity to changes in concentration of product was used to convert fluorescent changes into molar velocities. The amount of cleavage was determined by HPLC.

Work on `O=C(N[C@H]1c2ccccc2C[C@H]1O)[C@H](Cc1ccccc1)C[C@H](O)CN1C(=O)[C@H](Cc2ccccc2)C[C@@H]1Cc1ccccc1` [(2R,4S)-2-benzyl-5-[(3R,5R)-3,5-dibenzyl-2-oxopyrrolidin-1-yl]-4-hydroxy-N-[(1S,2R)-2-hydroxy-2,3-dihydro-1H-inden-1-yl]pentanamide] yielded a Ki of over 0.5 nM.
